Measurements as given in patent US20240067932A1, “METHODS AND COMPOSITIONS FOR GENERATING HEMOGENIC ENDOTHELIAL CELLS FROM PLURIPOTENT STEM CELLS” (Trailhead Biosystems Inc., priority 2022, published 2024).

Tests used:
Assay type in all cases: cell-based, human
[1] = system: early mesoderm progenitors; test: 8-factor HD-DoE experiments optimized for maximum GATA2 expression (qPCR, partial least squares models)
[2] = system: early mesoderm progenitors; test: as above; conditions: for factor contribution (maximum expression of GATA2): first model, FIG. 2, factors Forskolin, VEGF, FGF2, Albumax, SUN1162, Hydrocortisone, SB341542, Resveratrol, 3 days after stage 1
Source text: The early mesoderm progenitors were used for further differentiation along the endothelial lineage using a High-Dimensional Design of Experiments (HD-DoE) approach to simultaneously test multiple process inputs (e.g., small molecule agonists or antagonists) on output responses, such as gene expression. Based on predicted conditions that maximize expression of hemogenic endothelial enriched genes such as CD31, CD34, CD143, CD309, GATA2, Fill and RUNX1, vWF, a complex recipe was developed for generating differentiated hemogenic endothelial cells from the early mesoderm progenitors, composed of 8 agents as shown below in Table 1:
First, undifferentiated iPSC were grown for 48 h in CDM2 media containing 6 uM CHIR99021 (referred to herein as stage 1). Then stage 2 media was engineered. The basis of this was an 8-factor HD-DoE experiment with focus on differentiation of cells toward the hemogenic endothelial lineage for an additional 3 days after termination of stage 1 treatment. To test the effectors, 48 different combinations of effectors generated using Design-of-Experiments compression through D-optimality were robotically prepared. The effector combinations were prepared in a basal media and were subsequently added to the cells, which were then allowed to differentiate. Three days later, RNA extraction was performed, and gene expression was obtained using quantitative PCR analysis. The data were normalized and modeled using partial least squares regression analysis to the effector design, resulting in the generation of gene-specific models, which after model tuning for maximal Q2 predictive power, provided explanation of the effectors ability to control the expression of individual genes, combinatorically, and individually. Solutions within the tested space could then be explored to address desirability. For stage 2, conditions were created inducing the expression of GATA2, a transcription factor identified as a master regulator of hematopoiesis. GATA2 promotes the generation of HECs and facilitates endothelial-to-hematopoietic transition (EHT). GATA2 also suppresses cardiac differentiation at the mesoderm stage, directing cells to a hematopoietic fate. Optimizing for maximal expression of GATA2 led to a robust solution. […] In this model, high levels of KDR, important receptor for VEGF signaling, were observed. […] This model was derived from initial testing of eight factors including: Forskolin, VEGF, FGF2, Albumax, SUN1162, Hydrocortisone, SB341542, and Resveratrol. […] Factors with low contribution were excluded.

[3] = system: early mesoderm progenitors; test: Factor criticality / dynamic profile analysis of gene expression on removal of a finalized effector; parameters: expression level of GATA2 / expression level of TAL1 / expression level of CD44 / expression level of KDR / expression level of CD34 / expression level of CD31: unit not given here
[4] = second model, FIG. 3, factors CHIR, VEGF, FGF2, TTNBP, AGN194310, Y27632, Thymosin-β4, heparin
[5] = model FIG. 7 (VEGF, Forskolin, FGF2), factor present
[6] = model FIG. 7, named factor removed, others kept
[7] = fourth model, FIG. 5, factors VEGF, FGF2, Sphingosine 1 phosphate, V11298, Pyrintegrin, Erythropoietin, L-ascorbic acid, XAV939
[8] = model FIG. 9, named factor removed
[9] = model FIG. 11, named factor removed
[10] = fifth model, FIG. 6, factors VPA, SCF, BMP4, EFG, FLT3L, Arginine, Retinoic Acid, VEGF
[11] = model FIG. 9A, before addition of SANT1
[12] = model FIG. 9A, with addition of SANT1
[13] = model FIG. 10 (XAV939, VEGF, FGF2, L-ascorbic acid kept), factor present
[14] = model FIG. 10, named factor removed
[15] = model FIG. 8, named factor removed, others kept

## CCc1ccc(C2=CC(C)(C)Sc3ccc(C#Cc4ccc(C(=O)O)cc4)cc32)cc1 [AGN194310]
[1]; [4]
  factor contribution (maximum expression of GATA2): relatively low factor contribution

## Cc1c[nH]c(-c2cnc(NCCNc3ccc(C#N)cn3)nc2-c2ccc(Cl)cc2Cl)n1 [CHIR]
[1]; [4]
  factor contribution (maximum expression of GATA2): relatively low factor contribution

## C=C[C@@]1(C)CC(=O)[C@]2(O)[C@@]3(C)[C@@H](O)CCC(C)(C)[C@@H]3[C@H](O)[C@H](OC(C)=O)[C@@]2(C)O1 [Forskolin, reference compound]
[2]
  factor contribution (maximum expression of GATA2): 27
[3]; [5]
  expression level of GATA2: 583
[3]; model FIG. 7, factor present
  expression level of CD34: 2350
  expression level of CD44: 578
  expression level of FLI1 (Fill [sic]): 3971
  expression level of KDR: 33751
  expression level of TAL1: 370
[3]; [6]
  expression level of CD34: 2240
  expression level of CD44: 540
  expression level of FLI1 (Fill [sic]): 3740
  expression level of GATA2: 373
  expression level of KDR: 32839
  expression level of TAL1: 318

## O=C1O[C@H]([C@@H](O)CO)C(O)=C1O [L-ascorbic acid, reference compound]
[3]; model FIG. 10
  effect on expression of hemogenic endothelial genes analyzed (in words): increased expression of crucial genes
[1]; [7]
  factor contribution (maximum expression of GATA2): 5

## c1ccc2c(Oc3nc(Nc4ccc(N5CCOCC5)cc4)c4ncn(C5CCCCC5)c4n3)cccc2c1 [Purmorphamine, reference compound]
[3]; model FIG. 9 (Purmorphamine, VEGF, B-27 kept), factor present
  expression level of GATA2: 275
[3]; model FIG. 9, factor present
  expression level of CD34: 3230
  expression level of FLI1 (Fill [sic]): 3571
  expression level of KDR: 13612
  expression level of TAL1: 1008
[3]; [8]
  expression level of CD34: 2369
  expression level of FLI1 (Fill [sic]): 2324
  expression level of GATA2: 105
  expression level of KDR: 7614
  expression level of TAL1: 428
[1]; third model, FIG. 4, factors YHHU, DBZ, Purmorphamine, SANT1, LPA, Yodal, VEGF, B-27
  factor contribution (maximum expression of GATA2): 20

## CC1=C(/C=C/C(C)=C/C=C/C(C)=C/C(=O)O)C(C)(C)CCC1 [Retinoic Acid, Retinoic acid, reference compound]
[3]; model FIG. 11 (Retinoic Acid, BMP4, VEGF), factor present
  expression level of GATA2: 519
[3]; model FIG. 11, factor present
  expression level of CD31: 768
  expression level of CD34: 3971
  expression level of FLI1 (Fill [sic]): 3250
  expression level of TAL1: 490
[3]; [9]
  expression level of CD31: 486
  expression level of CD34: 2902
  expression level of FLI1 (Fill [sic]): 2936
  expression level of GATA2: 281
  expression level of TAL1: 235
[1]; [10]
  factor contribution (maximum expression of GATA2): 22

## Cc1nn(-c2ccccc2)c(C)c1/C=N/N1CCN(Cc2ccccc2)CC1 [SANT1, reference compound]
[3]; model FIG. 9
  effect on expression of genes of interest (in words): decreased levels of all genes of interest
[3]; [11]
  expression level of CD34: 3159
  expression level of KDR: 13469
  expression level of TAL1: 1010
[3]; [12]
  expression level of CD34: 1995
  expression level of KDR: 12504
  expression level of TAL1: 498

## C/C(=C\c1ccc(C(=O)O)cc1)c1ccc2c(c1)C(C)(C)CCC2(C)C [TTNBP]
[1]; [4]
  factor contribution (maximum expression of GATA2): relatively low factor contribution

## Oc1nc(-c2ccc(C(F)(F)F)cc2)nc2c1CSCC2 [XAV939, reference compound]
[3]; [13]
  expression level of GATA2: 992
[3]; model FIG. 10, factor present
  expression level of CD31: 6619
  expression level of CD34: 7050
  expression level of CD44: 838
  expression level of FLI1 (Fill [sic]): 13094
  expression level of KDR: 36067
  expression level of TAL1: 1265
[3]; [14]
  expression level of CD31: 2181
  expression level of CD34: 5740
  expression level of CD44: 799
  expression level of FLI1 (Fill [sic]): 7237
  expression level of GATA2: 560
  expression level of KDR: 31179
  expression level of TAL1: 982
[1]; [7]
  factor contribution (maximum expression of GATA2): 16

## C[C@@H](N)[C@H]1CC[C@H](C(=O)Nc2ccncc2)CC1 [Y27632]
[1]; [4]
  factor contribution (maximum expression of GATA2): relatively low factor contribution

## FGF2: FGFR agonist (e.g., recombinant human FGF2)
[2]; across models
  factor contribution in 2 of 3 models: > 16
[2]
  factor contribution (maximum expression of GATA2): 17
[3]; [5]
  expression level of GATA2: 583
[3]; model FIG. 7, factor present
  expression level of CD31: 879
  expression level of CD44: 576
  expression level of FLI1 (Fill [sic]): 3970
  expression level of KDR: 33760
[3]; [6]
  expression level of CD31: 505
  expression level of CD44: 274
  expression level of FLI1 (Fill [sic]): 3374
  expression level of GATA2: 458
  expression level of KDR: 23868
[3]; model FIG. 8, factor present
  expression level of CD31: 807
  expression level of CD44: 748
  expression level of KDR: 40630
[3]; [15]
  expression level of CD31: 677
  expression level of CD44: 626
  expression level of KDR: 29902
[3]; [13]
  expression level of GATA2: 992
[3]; model FIG. 10, factor present
  expression level of CD31: 6619
  expression level of CD34: 7050
  expression level of CD44: 838
  expression level of FLI1 (Fill [sic]): 13094
  expression level of KDR: 36067
  expression level of TAL1: 1265
[3]; [14]
  expression level of CD31: 2002
  expression level of CD34: 6550
  expression level of CD44: 466
  expression level of FLI1 (Fill [sic]): 5406
  expression level of GATA2: 397
  expression level of KDR: 22308
  expression level of TAL1: 866
[1]; [7]
  factor contribution (maximum expression of GATA2): 22
[1]; [4]
  factor contribution (maximum expression of GATA2): low factor contribution

## Thymosin-β4: Actin binding protein (SDKPDMAEIEKFDKSKLKKTETQEKNPLPSKETIEQEKQAGES; UniProt P62328 2-44, looked up)
[3]; model FIG. 8 (VEGF, FGF2, Thymosin-β4), factor present
  expression level of GATA2: 633
[3]; model FIG. 8, factor present
  expression level of CD44: 748
  expression level of KDR: 40660
[3]; [15]
  expression level of CD44: 626
  expression level of GATA2: 437
  expression level of KDR: 37788
[1]; [4]
  factor contribution (maximum expression of GATA2): 16

## VEGF
[2]
  factor contribution (maximum expression of GATA2): 46
[3]; [5]
  expression level of GATA2: 583
[3]; model FIG. 7, factor present
  expression level of CD31: 879
  expression level of CD34: 2350
  expression level of CD44: 578
  expression level of FLI1 (Fill [sic]): 3971
  expression level of KDR: 33751
  expression level of TAL1: 370
[3]; [6]
  expression level of CD31: 2
  expression level of CD34: 150
  expression level of CD44: 349
  expression level of FLI1 (Fill [sic]): 241
  expression level of GATA2: 236
  expression level of KDR: 16856
  expression level of TAL1: 18
[3]; model FIG. 8
  effect on expression of hemogenic endothelial genes analyzed (in words): critical for increasing the expression of all hemogenic endothelial genes analyzed
[3]; model FIG. 9, factor present
  expression level of CD31: 869
  expression level of CD34: 2341
  expression level of FLI1 (Fill [sic]): 2292
  expression level of KDR: 7518
[3]; [8]
  expression level of CD31: 262
  expression level of CD34: 868
  expression level of FLI1 (Fill [sic]): 974
  expression level of KDR: 6209
[3]; model FIG. 10
  effect on expression of hemogenic endothelial genes analyzed (in words): critical for expression of all hemogenic endothelial genes analyzed
[3]; model FIG. 11
  effect on expression of hemogenic endothelial genes analyzed (in words): critical for expression of all hemogenic endothelial genes analyzed
[1]; across models
  effect towards GATA2 induction in 4 out of 5 models: strong positive effect towards GATA2 induction
[1]; [10]
  factor contribution (maximum expression of GATA2): 22
[1]; [7]
  factor contribution (maximum expression of GATA2): 22
[1]; [4]
  factor contribution (maximum expression of GATA2): 25

## heparin
[1]; [4]
  factor contribution (maximum expression of GATA2): relatively low factor contribution
